Our source for the Survival, EC50 and T/C values is ChEMBL document CHEMBL1124546, “Synthesis of unsymmetrically substituted 1,4-bis[(aminoalkyl)amino]anthracene-9,10-diones as potential antileukemic agents” (1989).

SMILES strings stand for the structures. ≈ marks a conversion by molar mass, not a printed value.

The nature of test [1]: Survivors of CDF1 mice on day 4 after 1st injection of compound at 10 mg/kg in six mice; 6/6. The test is classed as functional, Mus musculus.
Test [2] is described as follows: Survivors of CDF1 mice on day 4 after 1st injection of compound at 20 mg/kg in six mice; 6/6. The class given is functional, Mus musculus.
Test [3] is described as follows: Survivors of CDF1 mice on day 4 after 1st injection of compound at 5 mg/kg in six mice; 6/6. The test is classed as functional, Mus musculus.
A further test has as its system L1210. In words: Concentration required to inhibit the growth of L1210 leukemia cells. The class given is functional. The conditions noted are these: Mus musculus, read-out: ED50 (the source's name).
Test [4] concerns P388. The test is described as follows: (§1) Survivors of CDF1 mice on day 4 after 1st injection of compound 80 at mg/kg in six mice; 6/6. The class given is functional, Mus musculus.
Test [5] relates to P388. The test is described as follows: Percent ratio of the medium survival time for P388 murine leukemia in CDF1 mice at 10 mg/kg. The test is classed as functional, Mus musculus.
Test [6] relates to P388. The test is described as follows: (§2) Survivors of CDF1 mice on day 4 after 1st injection of compound at 40 mg/kg in six mice; 6/6. The test is classed as functional, Mus musculus.
Test [7] can be described thus: as §1. The test is classed as functional, Mus musculus.
Test [8] has as its system P388. The test is described as follows: Percent ratio of the medium survival time for P388 murine leukemia in CDF1 mice at 20 mg/kg. The class given is functional, Mus musculus.
Test [9] deals with P388. In words: Percent ratio of the medium survival time for P388 murine leukemia in CDF1 mice at 40 mg/kg. The class given is functional, Mus musculus.
The subject of test [10] is P388. The test is described as follows: Percent ratio of the medium survival time for P388 murine leukemia in CDF1 mice at 5 mg/kg. The test is classed as functional, Mus musculus.
The test system of test [11] is P388. The test is described as follows: Percent ratio of the medium survival time for P388 murine leukemia in CDF1 mice at 80 mg/kg. The test is classed as functional, Mus musculus.
Test [12] can be described thus: as §2. The class given is functional, Mus musculus.
Test [13] in a line: Survivors of CDF1 mice on day 4 after 1st injection of compound 25 at mg/kg in six mice; 6/6. The test is classed as functional, Mus musculus.
Test [14] in a line: Survivors of CDF1 mice on day 4 after 1st injection of compound at 12.5 mg/kg in six mice; 6/6. The class given is functional, Mus musculus.
Test [15] is described as follows: Survivors of CDF1 mice on day 4 after 1st injection of compound at 3.12 mg/kg in six mice; 6/6. The test is classed as functional, Mus musculus.
A short description of test [16]: Survivors of CDF1 mice on day 4 after 1st injection of compound at 6.25 mg/kg in six mice; 6/6. The class given is functional, Mus musculus.
For test [17], the system named is P388. The test is described as follows: Percent ratio of the medium survival time for P388 murine leukemia in CDF1 mice at 12.5 mg/kg. The class given is functional, Mus musculus.
Test [18] has as its system P388. The test is described as follows: Percent ratio of the medium survival time for P388 murine leukemia in CDF1 mice at 25 mg/kg. The class given is functional, Mus musculus.
Test [19] has as its system P388. In words: Percent ratio of the medium survival time for P388 murine leukemia in CDF1 mice at 3.12 mg/kg. The class given is functional, Mus musculus.
The test system of test [20] is P388. In words: Percent ratio of the medium survival time for P388 murine leukemia in CDF1 mice at 6.25 mg/kg. The class given is functional, Mus musculus.
A short description of test [21]: Survivors of CDF1 mice on day 4 after 1st injection of compound at 0.75 mg/kg in six mice; 6/6. The test is classed as functional, Mus musculus.
Test [22] is described as follows: Survivors of CDF1 mice on day 4 after 1st injection of compound at 1.5 mg/kg in six mice; 6/6. The test is classed as functional, Mus musculus.
A short description of test [23]: Survivors of CDF1 mice on day 4 after 1st injection of compound at 3 mg/kg in six mice; 6/6. The class given is functional, Mus musculus.
Test [24] can be described thus: Survivors of CDF1 mice on day 4 after 1st injection of compound at 6 mg/kg in six mice; 6/6. The test is classed as functional, Mus musculus.
A short description of test [25]: Survivors of CDF1 mice on day 4 after 1st injection of compound 12 at mg/kg in six mice; 6/6. The class given is functional, Mus musculus.
The subject of test [26] is P388. In words: Percent ratio of the medium survival time for P388 murine leukemia in CDF1 mice at 1.5 mg/kg. The test is classed as functional, Mus musculus.
For test [27], the system named is P388. The test is described as follows: Percent ratio of the medium survival time for P388 murine leukemia in CDF1 mice at 0.75 mg/kg. The class given is functional, Mus musculus.
For test [28], the system named is P388. In words: Percent ratio of the medium survival time for P388 murine leukemia in CDF1 mice at 12 mg/kg. The class given is functional, Mus musculus.
For test [29], the system named is P388. In words: Percent ratio of the medium survival time for P388 murine leukemia in CDF1 mice at 3 mg/kg. The class given is functional, Mus musculus.
Test [30] concerns P388. In words: Percent ratio of the medium survival time for P388 murine leukemia in CDF1 mice at 6 mg/kg. The class given is functional, Mus musculus.
The nature of test [31]: Survivors of CDF1 mice on day 4 after 1st injection of compound 40 at mg/kg in seven mice; 5/7. The test is classed as functional, Mus musculus.
Test [32] can be described thus: Survivors of CDF1 mice on day 4 after 1st injection of compound at 1.25 mg/kg in seven mice; 7/7. The test is classed as functional, Mus musculus.
Test [33] is described as follows: Survivors of CDF1 mice on day 4 after 1st injection of compound at 10 mg/kg in seven mice; 7/7. The class given is functional, Mus musculus.
Test [34] can be described thus: Survivors of CDF1 mice on day 4 after 1st injection of compound at 2.5 mg/kg in seven mice; 7/7. The test is classed as functional, Mus musculus.
The nature of test [35]: Survivors of CDF1 mice on day 4 after 1st injection of compound at 20 mg/kg in seven mice; 7/7. The class given is functional, Mus musculus.
A short description of test [36]: Survivors of CDF1 mice on day 4 after 1st injection of compound at 5 mg/kg in seven mice; 7/7. The test is classed as functional, Mus musculus.
In test [37] the test system is P388. In words: Percent ratio of the medium survival time for P388 murine leukemia in CDF1 mice at 1.25 mg/kg. The class given is functional, Mus musculus.
In test [38] the test system is P388. The test is described as follows: Percent ratio of the medium survival time for P388 murine leukemia in CDF1 mice at 2.5 mg/kg. The test is classed as functional, Mus musculus.

Consider `CC(C)(CO)NCCNc1ccc(NCCNCCO)c2c1C(=O)c1ccccc1C2=O`, for which the Survival (in [1]; in test [2]; in test [3]; in the test with P388 [4]; with P388 [6]) was 6 each time. Also, in the test on L1210, the EC50 is 1.48 µg/mL (≈ 3.36 µM). Besides, the T/C in the test with P388 [5] stood at 151%.

Take `CN(C)CCNc1ccc(NCCNCCO)c2c1C(=O)c1ccccc1C2=O`: the Survival in test [1], in test [2], in test [3], in test [7] and in test [12] was 6 throughout. Moreover, the EC50 in the test with L1210 is 0.64 µg/mL (≈ 1.61 µM). Also, the T/C worked out at 151% with P388 [5]; 173% in the test on P388 [8]; 192% in the test with P388 [9]; 144% in the test on P388 [10]; 192% in the test on P388 [11].

On to `O=C1c2ccccc2C(=O)c2c(NCCNCCO)ccc(NCCO)c21`, for which the Survival in test [1], in test [2], in [3], in test [7] and in test [12] was 6 in each case. For the same compound, in the test with L1210, the EC50 stood at 12.3 µg/mL (≈ 33.3 µM). The T/C is recorded as 125% with P388 [5]; 142% in the test on P388 [8]; 127% in the test with P388 [9]; 115% in the test with P388 [10]; 144% in the test on P388 [11].

`O=C1c2ccccc2C(=O)c2c(NCCNCCO)ccc(NCCNCCO)c21` [AMETANTRONE]: the Survival in test [13], in [14], in test [15] and in test [16] was 6 in each case. In addition, in the test with L1210, the EC50 was 2.54 µg/mL (≈ 6.16 µM). Moreover, the T/C is listed as 300% in the test on P388 [17], 200% with P388 [18], 200% in the test with P388 [19] and 240% in the test with P388 [20].

Regarding `O=C1c2ccccc2C(=O)c2c(NCCN3CCOCC3)ccc(NCCNCCO)c21`, the Survival in test [1], in [2], in [3], in test [7] and in test [12] was 6 throughout. Moreover, the EC50 with L1210 came out at 2.36 µg/mL (≈ 5.38 µM). For the same compound, in the test on P388 [5], the T/C came to 132%.

Consider `O=C1c2c(O)ccc(O)c2C(=O)c2c(NCCNCCO)ccc(NCCNCCO)c21` [MITOXANTRONE], for which the Survival in test [21], in [22], in [23], in test [24] and in test [25] was 6 each time. The T/C in the test with P388 [26] is recorded as 201%; with P388 [27], 209%; in the test on P388 [28], 118%; in the test with P388 [29], 288%; in the test on P388 [30], 192%.

For `NCCNc1ccc(NCCNCCO)c2c1C(=O)c1ccccc1C2=O`, the Survival in test [31] stood at 5; in test [32] it was 7; in [33], 7; in test [34] it was 7; in test [35], 7; in test [36] it was 7. For the same compound, in the test with L1210, the EC50 came out at 2.38 µg/mL (≈ 6.46 µM). In addition, the T/C in the test on P388 [37] was 170%; in the test on P388 [5], 300%; in the test on P388 [38] it was 180%; in the test with P388 [8] it was 300%; in the test on P388 [9], 80%; with P388 [10], 200%.

In general, T/C refers to the ratio of treated to control.
